# Results as given in patent publication US10022461B2, “Pyrrolo[2,3-C]pyridines as imaging agents for neurofibrilary tangles” (MERCK SHARP & DOHME CORP., priority 2014, dated 2018).
# Molecular target: tau (Homo sapiens, UniProt P10636)
# Test: displacement tau binding assay in AD brain homogenates with [^3H]-6
# Procedure: The frozen human brain samples of Alzheimer's disease (AD) were purchased from Analytic Biological Services Inc. They were postmortem tissue from donors with clinical diagnosis of AD. As much of the white matter was dissected out of the frontal cortex in order to enrich the tissue preparations for gray matter. Brain homogenates of gray matter enriched frontal cortex were prepared by homogenizing the tissue in ice cold Phosphate Buffered Saline (PBS), pH 7.4 at 80 mg wet weight tissue per 1 mL for 45 seconds at 4° C. on setting 16 of Polytron. The homogenate was further diluted with ice cold PBS to 30 mg wet weight tissue per 1 mL and homogenized for an additional minute as described above. Homogenates were aliquoted in 5 ml/tube and store at −70° C. until use. […] Brain homogenates were diluted to 0.5 mg/mL from original 30 mg/mL volume in Assay Buffer, and 200 μl were added to the assay plate for a final concentration of 100 μg wet weight/assay tube. [^3H]-6 was prepared at […] final concentration in Assay Buffer plus 20% DMSO and 25 μl was added to the assay plate for final assay concentration of 0.25 nM. The assay plate was incubated at room temperature (25° C.) for 90 minutes. […] Filter plates were dried for 1 hour in a vacuum oven and 50 μl/well MicroScint-20 were added. Plates were counted 1 min per well by Packard Topcount. Total amount of radioligand used in the assay was determined by counting 25 μl of 10× ligand stock. […] Tau Ki data for representative compounds of the invention are found in Table 1.
# [1] = Table 1, displacement of [^3H]-6 (0.25 nM)
# [2] = Table 2, displacement of [^3H]-6 (0.25 nM)
# tau, sequence (P10636 2-758 limits assumed): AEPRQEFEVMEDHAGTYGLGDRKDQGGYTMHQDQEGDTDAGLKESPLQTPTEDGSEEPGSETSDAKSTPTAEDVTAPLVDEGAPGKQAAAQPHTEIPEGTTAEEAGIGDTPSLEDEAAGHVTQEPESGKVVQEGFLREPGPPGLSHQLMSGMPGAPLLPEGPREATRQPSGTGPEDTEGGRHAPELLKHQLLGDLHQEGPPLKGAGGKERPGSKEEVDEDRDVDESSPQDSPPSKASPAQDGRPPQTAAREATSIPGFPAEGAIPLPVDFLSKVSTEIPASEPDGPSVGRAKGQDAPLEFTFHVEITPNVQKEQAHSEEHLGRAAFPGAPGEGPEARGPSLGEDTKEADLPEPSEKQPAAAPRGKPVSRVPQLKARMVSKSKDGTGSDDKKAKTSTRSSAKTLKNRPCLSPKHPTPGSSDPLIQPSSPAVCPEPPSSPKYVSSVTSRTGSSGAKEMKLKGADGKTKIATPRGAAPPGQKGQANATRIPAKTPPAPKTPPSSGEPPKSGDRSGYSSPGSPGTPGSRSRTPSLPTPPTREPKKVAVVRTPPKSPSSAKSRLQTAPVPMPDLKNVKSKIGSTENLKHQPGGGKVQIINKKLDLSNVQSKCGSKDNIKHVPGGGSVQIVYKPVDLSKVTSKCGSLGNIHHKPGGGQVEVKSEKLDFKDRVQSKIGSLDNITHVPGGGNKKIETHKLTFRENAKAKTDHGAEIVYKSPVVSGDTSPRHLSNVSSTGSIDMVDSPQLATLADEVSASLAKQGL
Structure (SMILES),Ki [1] [nM],Ki [2] [nM]
"FC1CCN(c2ccc(-n3ccc4ccncc43)nc2)CC1 [Compound 43, 1-(5-(4-fluoropiperidin-1-yl)pyridin-2-yl)-1H-pyrrolo[2,3-c]pyridine]",10,–
"Fc1cc(-c2ccc(-n3ccc4ccncc43)nc2)ccn1 [Compound 44, 1-(6′-fluoro-3,4′-bipyridin-6-yl)-1H-pyrrolo[2,3-c]pyridine]",1.13,–
"c1cc(-c2ccc(-n3ccc4ccncc43)nc2)ncn1 [Compound 46, 1-(5-(pyrimidin-4-yl)pyridin-2-yl)-1H-pyrrolo[2,3-c]pyridine]",2.19,–
Oc1cccc2cnc(-n3ccc4ccncc43)cc12 [Compound 49],0.67,–
C#Cc1cnc(-n2ccc3ccncc32)cc1C [Compound 50],0.75,–
Cc1cc(-n2ccc3ccncc32)ncc1C#CCF [Compound 51],0.87,–
CC#Cc1ccc(-n2ccc3ccncc32)nc1 [Compound 52],0.98,–
c1cc2ccn(-c3ccc(-c4cncs4)cn3)c2cn1 [Compound 53],1.02,–
FCOc1ccc2cnc(-n3ccc4ccncc43)cc2c1 [Compound 57],1.23,–
Cn1cc(-c2ccc(-n3ccc4ccncc43)nc2)cn1 [Compound 58],1.32,–
Fc1ccc(-c2ccc(-n3ccc4ccncc43)nc2)cn1 [Compound 60],2.04,–
CN(C)c1ccc2cnc(-n3ccc4ccncc43)cc2c1 [Compound 61],2.23,–
Fc1ccc2nc(-n3ccc4ccncc43)ncc2c1 [Compound 62],2.55,–
Cn1ccc(-c2ccc(-n3ccc4ccncc43)nc2)n1 [Compound 63],2.84,–
c1cnc(-c2ccc(-n3ccc4ccncc43)nc2)cn1 [Compound 64],3.17,–
Cn1cnc(-c2ccc(-n3ccc4ccncc43)nc2)c1 [Compound 65],3.42,–
CN(CCO)c1ccc2cnc(-n3ccc4ccncc43)cc2c1 [Compound 66],4.07,–
FCCOc1cccc2cc(-n3ccc4ccncc43)ncc12 [Compound 67],6.75,–
Fc1ccc2cnc(-n3ccc4ccncc43)nc2c1 [Compound 68],8.45,–
FCCOc1ccc2nc(-n3ccc4ccncc43)ncc2c1 [Compound 69],9.33,–

Structure (SMILES),Ki [1] [nM],Ki [2] [nM]
COc1cccc2cnc(-n3ccc4ccncc43)cc12 [Compound 70],44.4,–
FCCOc1cccc2cnc(-n3ccc4ccncc43)cc12 [Compound 71],172,–
CNc1cccc(-c2ccc(-n3ccc4ccncc43)nc2)c1 [Compound 72],0.76,–
Oc1ccc2cnc(-n3ccc4ccncc43)cc2c1 [Compound 75],0.48,–
CNc1ccc(-c2ccc(-n3ccc4ccncc43)nc2)cn1 [Compound 88],0.69,–
Fc1cccc(-c2ccc(-n3ccc4ccncc43)nc2)n1 [Compound 91],1.41,–
CNc1cc(-c2ccc(-n3ccc4ccncc43)nc2)ccn1 [Compound 93],0.53,–
CCNc1cc(-c2ccc(-n3ccc4ccncc43)nc2)ccn1 [Compound 94],1.4,–
CN(C)c1ccc(-c2ccc(-n3ccc4ccncc43)nc2)cn1 [Compound 95],0.96,–
Nc1cc(-c2ccc(-n3ccc4ccncc43)nc2)ccn1 [Compound 99],0.55,–
Nc1ccc(-c2ccc(-n3ccc4ccncc43)nc2)cn1 [Compound 100],1.06,–
c1ccc(-c2ccc(-n3ccc4ccncc43)nc2)nc1 [Compound 101],1.14,–
"FCCn1ccc(-c2ccc(-n3ccc4ccncc43)nc2)n1 [Compound 104, 1-(5-(1-(2-fluoroethyl)-1H-pyrazol-3-yl)pyridin-2-yl)-1H-pyrrolo[2,3-c]pyridine]",1.71,–
Nc1cccc2cnc(-n3ccc4cc(F)ncc43)cc12 [Compound 106],–,10000
Nc1cccc2cnc(-n3ccc4ccnc(F)c43)cc12 [Compound 107],–,10000
Nc1cc2cc(-n3ccc4ccncc43)ncc2cc1I [Compound 126],–,0.18
Nc1cc(I)cc2cnc(-n3ccc4ccncc43)cc12 [Compound 127],–,1.17
Nc1cc(I)c2cc(-n3ccc4ccncc43)ncc2c1 [Compound 128],–,6.21
COc1cc2ccn(-c3cc4cc(F)ccc4cn3)c2cn1 [Compound 130],–,4.03

# More lines, now with the values ahead:
Ki [1] [nM],Ki [2] [nM],Structure (SMILES)
1.05,–,Fc1cccc2cnc(-n3ccc4ccncc43)cc12 [Compound 54]
1.14,–,FCOc1cccc2cc(-n3ccc4ccncc43)ncc12 [Compound 55]
1.16,–,Oc1cccc2cc(-n3ccc4ccncc43)ncc12 [Compound 56]
0.33,–,Nc1cccc2cc(-n3ccc4ccncc43)ncc12 [Compound 59]
0.32,–,COc1cccc2cc(-n3ccc4ccncc43)ncc12 [Compound 103]
–,0.383,"Nc1cc2cnc(-n3ccc4ccncc43)cc2cc1F [Compound 105, 6-fluoro-3-(1H-pyrrolo[2,3-c]pyridin-1-yl)isoquinolin-7-amine]"
–,0.677,Nc1ccc2cc(-n3ccc4ccncc43)ncc2c1F [Compound 108]
–,0.423,Nc1cc2cc(-n3ccc4ccncc43)ncc2cc1F [Compound 109]
–,2.15,Nc1c(F)ccc2cc(-n3ccc4ccncc43)ncc12 [Compound 110]
–,1.09,Nc1ccc2cnc(-n3ccc4ccncc43)cc2c1F [Compound 111]
–,0.672,Nc1cc(F)cc2cc(-n3ccc4ccncc43)ncc12 [Compound 112]
–,0.784,Nc1cc(F)c2cnc(-n3ccc4ccncc43)cc2c1 [Compound 113]
–,0.494,Nc1cc(F)c2cc(-n3ccc4ccncc43)ncc2c1 [Compound 114]
–,0.224,Nc1cc(F)cc2cnc(-n3ccc4ccncc43)cc12 [Compound 115]
–,1.28,Nc1ccc(F)c2cnc(-n3ccc4ccncc43)cc12 [Compound 116]
–,2,Nc1ccc(F)c2cc(-n3ccc4ccncc43)ncc12 [Compound 117]
–,24.5,Nc1ccc2cnc(-n3ccc4ccncc43)cc2c1I [Compound 118]
–,0.438,Nc1c(I)ccc2cnc(-n3ccc4ccncc43)cc12 [Compound 119]
–,93.8,Nc1ccc(I)c2cc(-n3ccc4ccncc43)ncc12 [Compound 120]
–,0.512,Nc1c(I)ccc2cc(-n3ccc4ccncc43)ncc12 [Compound 121]
–,1.77,Nc1ccc2cc(-n3ccc4ccncc43)ncc2c1I [Compound 122]
–,208,Nc1ccc(I)c2cnc(-n3ccc4ccncc43)cc12 [Compound 123]
–,1.07,Nc1cc(I)cc2cc(-n3ccc4ccncc43)ncc12 [Compound 124]
–,18.6,Nc1cc(I)c2cnc(-n3ccc4ccncc43)cc2c1 [Compound 125]
